ChEMBL document CHEMBL1132766, “Synthesis and antiamoebic activity of new cyclooctadiene ruthenium(II) complexes with 2-acetylpyridine and benzimidazole derivatives” (Bioorg Med Chem Lett, 2000)
Values after ≈ are worked out from the molar mass of the structure shown.

System: Entamoeba histolytica
Test: Tested for antiamoebic activity against HK-9 strain of Entamoeba histolytica
Type: functional, organism-based

Structure (SMILES)	IC50
C/C(=N\NC(N)=S)c1ccccn1	0.31 µg/mL (≈ 1.6 µM)
c1ccc(-c2nc3ccccc3[nH]2)nc1	0.42 µg/mL (≈ 2.15 µM)
Cc1ncc([N+](=O)[O-])n1CCO [METRONIDAZOLE]	0.33 µg/mL (≈ 1.93 µM)

Other lines, results leading:

IC50	Structure (SMILES)
0.4 µg/mL (≈ 1.33 µM)	C/C(=N\N=C(/S)SCc1ccccc1)c1ccccn1
0.38 µg/mL (≈ 1.69 µM)	CS/C(S)=N/N=C(\C)c1ccccn1
